pKi: −log10 of the molar value.
What was measured:
human Cathepsin K = target: T1, human Cathepsin K (Homo sapiens, UniProt P43235); test: Cathepsin K inhibition, fluorogenic peptide substrate, progress curve method; type: biochemical; conditions: human recombinant enzyme, pH 5.5
T1 sequence (P43235 115-329): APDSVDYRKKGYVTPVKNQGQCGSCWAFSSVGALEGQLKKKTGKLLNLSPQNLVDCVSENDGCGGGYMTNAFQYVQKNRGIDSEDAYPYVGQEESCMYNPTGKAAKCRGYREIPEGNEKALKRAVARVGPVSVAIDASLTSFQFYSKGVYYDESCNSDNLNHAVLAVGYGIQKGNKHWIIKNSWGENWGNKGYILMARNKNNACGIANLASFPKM
Description: Determination of Cathepsin K Proteolytic Catalytic Activity
All assays for cathepsin K were carried out with human recombinant enzyme. Standard assay conditions for the determination of kinetic constants used a fluorogenic peptide substrate, typically Cbz-Phe-Arg-AMC, and were determined in […] Na acetate at pH 5.5 containing 20 mM cysteine and 5 mM EDTA. Stock substrate solutions were prepared at concentrations of 10 or 20 mM in DMSO with 20 uM final substrate concentration in the assays. All assays contained 10% DMSO. […] All assays were conducted at ambient temperature. Product fluorescence (excitation at 360 nm; emission at 460 nm) was monitored with a Perceptive Biosystems Cytofluor II fluorescent plate reader. Product progress curves were generated over 20 to 30 minutes following formation of AMC product.
Potential inhibitors were evaluated using the progress curve method. Assays were carried out in the presence of variable concentrations of test compound. Reactions were initiated by addition of enzyme to buffered solutions of inhibitor and substrate. Data analysis was conducted according to one of two procedures depending on the appearance of the progress curves in the presence of inhibitors. For those-compounds whose progress curves were linear, apparent inhibition constants (Ki,app) were calculated according to equation 1 (Brandt et al., Biochemitsry, 1989, 28, 140): […]
v=VmA/[Ka(1+[…])+A] (1) where v is the velocity of the reaction with maximal velocity Vm, A is the concentration of substrate with Michaelis constant of Ka, and I is the concentration of inhibitor.
[AMC]=vsst+(v0−vss)[1−exp(−kobst)]]/kobs (2) where [AMC] is the concentration of product formed over time t, v0 is the initial reaction velocity and vss is the final steady state rate. Values for kobs were then analyzed as a linear function of inhibitor concentration to generate an apparent second order rate constant (kobs/inhibitor concentration or kobs/[I]) describing the time-dependent inhibition. A complete discussion of this kinetic treatment has been fully described (Morrison et al., Adv. Enzymol. Relat. Areas Mol. Biol., 1988, 61, 201).

human Cathepsin S = human Cathepsin S (Homo sapiens, UniProt P25774); test: Cathepsin S inhibition, progress curve method; type: biochemical
Description: (§1) Potential inhibitors were evaluated using the progress curve method. Assays were carried out in the presence of variable concentrations of test compound. Reactions were initiated by addition of enzyme to buffered solutions of inhibitor and substrate. Data analysis was conducted according to one of two procedures depending on the appearance of the progress curves in the presence of inhibitors. For those-compounds whose progress curves were linear, apparent inhibition constants (Ki,app) were calculated according to equation 1 (Brandt et al., Biochemitsry, 1989, 28, 140):
(§2) v=VmA/[Ka(1+1/Ki, app)+A] (1)
(§3) where v is the velocity of the reaction with maximal velocity Vm, A is the concentration of substrate with Michaelis constant of Ka, and I is the concentration of inhibitor.

human Cathepsin B = human Cathepsin B (Homo sapiens, UniProt P07858); test: Cathepsin B inhibition, progress curve method; type: biochemical
Description: as §1, §2, §3

human Cathepsin L = human Cathepsin L (Homo sapiens, UniProt P07711); test: Cathepsin L inhibition, progress curve method; type: biochemical
Description: as §1, §2, §3

bone resorption [1] = conditions: rats on calcium deficient diets, serum calcium; cited from earlier work
bone resorption [2] = conditions: mouse bone organ culture; cited from earlier work
[3] = system: PTH stimulated bone resorption; conditions: mouse calvariae; cited from earlier work

human Cathepsin S, sequence (P25774 115-331): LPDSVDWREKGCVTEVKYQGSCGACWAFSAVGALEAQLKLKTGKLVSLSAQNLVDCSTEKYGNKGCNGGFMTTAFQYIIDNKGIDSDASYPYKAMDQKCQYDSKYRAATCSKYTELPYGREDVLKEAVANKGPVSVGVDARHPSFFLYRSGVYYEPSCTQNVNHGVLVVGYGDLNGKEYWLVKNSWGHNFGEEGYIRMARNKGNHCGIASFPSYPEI
human Cathepsin L, sequence (P07711 114-333): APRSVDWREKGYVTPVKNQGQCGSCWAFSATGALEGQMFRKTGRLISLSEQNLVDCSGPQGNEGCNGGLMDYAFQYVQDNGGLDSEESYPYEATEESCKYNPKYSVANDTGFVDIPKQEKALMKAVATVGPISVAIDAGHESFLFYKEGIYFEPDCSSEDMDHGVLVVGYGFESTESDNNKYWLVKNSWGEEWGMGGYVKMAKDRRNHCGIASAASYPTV

Compound | pKi (human Cathepsin K) | pKi (human Cathepsin S) | pKi (human Cathepsin B) | pKi (human Cathepsin L) | also measured
CC(C)C[C@H](NC(=O)[C@H]1O[C@@H]1C(=O)O)C(=O)NCCCCN=C(N)N [Example E-64, E-64] |  |  |  |  | prevention of bone resorption in vivo (bone resorption [1]): effective at preventing bone resorption in vivo
C[C@H](NC(=O)[C@H](Cc1ccccc1)NC(=O)OCc1ccccc1)C(=O)C=[N+]=[N-] [Z-Phe-Ala-CHN2] |  |  |  |  | prevention of bone resorption (bone resorption [2]): prevent bone resorption
CC(=O)N[C@@H](CC(C)C)C(=O)N[C@@H](CC(C)C)C(=O)N[C@H](C=O)CCCNC(=N)N [leupeptin] |  |  |  |  | prevention of bone resorption (bone resorption [2]): prevent bone resorption; prevention of bone resorption in vivo (bone resorption [1]): effective at preventing bone resorption in vivo
cystatin |  |  |  |  | inhibition of PTH stimulated bone resorption [3]: inhibits PTH stimulated bone resorption

Second part, led by results:

pKi (human Cathepsin K) | pKi (human Cathepsin S) | pKi (human Cathepsin B) | pKi (human Cathepsin L) | Compound | also measured
9.24 | 6.20 | 6.36 | 6.57 | O=C(NC1(C(=O)N[C@H]2CCCN(S(=O)(=O)c3ccccn3)CC2=O)CCCCC1)c1cc2sccc2s1 (racemic) [Example 2, Thieno[3,2-b]thiophene-2-carboxylic Acid {1-[(+/−)-3-oxo-1-(pyridine-2-sulfonyl)-azepan-4-ylcarbamorl]-cyclohexyl}-amide] | 
< 7.59 |  |  |  | O=C(NC1(C(=O)N[C@@H]2CCCN(S(=O)(=O)c3ccccn3)CC2=O)CCCCC1)c1cc2ccccc2o1 [Example 1 (R), Benzofuran-2-carboxylic acid {1-[(R)-3-oxo-1-(pyridine-2-sulfonyl)-azepan-4-ylcarbamoyl]-cyclohexyl}-amide] | 
8.85 | 6.41 | 6.03 | 6.62 | O=C(NC1(C(=O)N[C@H]2CCCN(S(=O)(=O)c3ccccn3)CC2=O)CCCCC1)c1cc2ccccc2o1 [Example 1, Benzofaran-2-carboxylic Acid {1-[(S)-3-oxo-1-(pyridine-2-sulfonel)-azepan-4-ylcarbamoyl]-cyclohexyl}-amide] | 
9.52 | 6.76 | 6.76 | 7.16 | C[C@@H]1CC[C@H](NC(=O)C2(NC(=O)c3cc4sccc4s3)CCCCC2)C(=O)CN1S(=O)(=O)c1ccccn1 [Example 5, Thieno[3,2-b]thiophene-2-carboxylic Acid {1-[(4S,7R)-7-methyl-3-oxo-1-(pyridine-2-sulfonyl)-azepan-4-ylcarbamoyl]-cyclohexyl}-amide] | 

Reference: patent US20040038965A1, “Protease inhibitors” (priority 2003, published 2004)
